For series [1], the target named is T1, PARP1 (Homo sapiens (Human), UniProt P09874). As to the kind of experiment: PARP1 trapping assay. Type of series: biochemical. The settings on record: read-out: Inhibitory Effect on PARP1 Trapping IC50. How it is done:
(§1) [table] […] 1. A 4× enzyme reaction mixture, comprising PARP1, PARP2, and GST-Tb antibody, was prepared with the buffer and 4 μL of the enzyme reaction mixture was added to a 384-well plate. 2. A 4×PARP1 and PARP2 probe reaction mixture was prepared with the buffer and 4 μL of the probe reaction mixture was added to the 384-well plate. 3. A series of gradient-diluted compounds were prepared and 4 μL of the diluted compounds were added to the 384-well plate, and incubated at room temperature for 45 minutes. 4. After incubation, 4 μL of 4×NAD reaction mixture was added to the 384-well plate and incubated at room temperature for 10 minutes. 5. After incubation, the plate was read using a plate reader. 6. Data Analysis: The percentage inhibition rate was calculated as follows: Inhibition Rate (%)=(Reading of Compound Group−Reading of Blank Group)/(Reading of Vehicle Control Group−Reading of Blank Group).

Series [2] can be described thus: Evaluation of pharmacokinetics in mice. The following applies: male, ICR (CD1), mouse, plasma, po, 10 mg/kg.
Series [3] has as its system MDA-MB-436 breast cancer cells. As to the kind of experiment: Cell proliferation assay, MDA-MB-436. The settings on record: Homo sapiens, MDA-MB-436, 168 h, read-out: MDA-MB-436 Cell IC50. Type of series: cell-based. In outline: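 Cells seeded 16 h, then exposed to a 9-point 1:3 compound dilution series for 7 days at 37° C., 5% CO2; DMSO-matched and cell-free controls. Viability by CellCounting-Lite luminescence; IC50 from log concentration versus % inhibition.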

The target of another series is PARP2 (Homo sapiens (Human), UniProt Q9UGN5). As to the kind of experiment: PARP2 trapping assay. Type of series: biochemical. The following applies: read-out: Inhibitory Effect on PARP2 Trapping IC50. As to the method: as §1
Sequence of PARP2 (Q9UGN5 whole entry): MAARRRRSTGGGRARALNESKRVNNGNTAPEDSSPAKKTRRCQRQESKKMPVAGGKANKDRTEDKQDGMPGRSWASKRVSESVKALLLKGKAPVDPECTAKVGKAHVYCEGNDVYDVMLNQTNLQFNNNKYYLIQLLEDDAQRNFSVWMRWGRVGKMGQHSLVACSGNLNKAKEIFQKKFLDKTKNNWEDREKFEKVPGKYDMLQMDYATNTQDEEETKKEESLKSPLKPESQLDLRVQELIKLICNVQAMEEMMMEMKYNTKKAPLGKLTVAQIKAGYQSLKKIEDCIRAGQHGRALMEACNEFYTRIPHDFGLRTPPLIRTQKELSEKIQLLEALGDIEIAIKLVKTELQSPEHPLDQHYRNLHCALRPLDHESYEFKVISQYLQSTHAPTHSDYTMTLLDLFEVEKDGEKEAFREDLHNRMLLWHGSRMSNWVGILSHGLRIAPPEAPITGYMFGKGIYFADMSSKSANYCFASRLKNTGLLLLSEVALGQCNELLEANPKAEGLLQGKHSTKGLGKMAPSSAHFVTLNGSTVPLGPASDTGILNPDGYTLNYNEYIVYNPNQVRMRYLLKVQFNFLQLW
A short description of series [4]: Evaluation of pharmacokinetics in rats. The settings on record: male, SD, rat, plasma, 1 mg/kg, oral gavage (PO, 1 mpk). It is filed as in vivo. The source says:
Test Animals: 6-8 Week Old Male SD Rats
Food was restored two hours after dosing.

Series [5] deals with UWB1.289 ovarian cancer cells. In words: Cell proliferation assay, UWB1.289. It is filed as cell-based. The settings on record: UWB1289, 168 h, read-out: UWB1.289 Cell IC50. How it is done:
Experimental Materials: MDA-MB-436 or UWB1.289 cell lines were purchased from Cobioer Biosciences Co. Ltd. (Nanjing, China). The STR identification results were a complete match, and mycoplasma testing was negative. MDA-MB-436 cells were cultured in DMEM complete medium containing 10% fetal bovine serum, 1% penicillin-streptomycin, 1% insulin, and 16 μg/mL glutathione; UWB1.289 cells were cultured in RMPI1640 complete medium containing 10% fetal bovine serum and 1% penicillin-streptomycin.
1. MDA-MB-436 or UWB1.289 cells were cultured in the aforementioned medium (culture conditions: 37° C., 5.0% CO2 in air) until they reached the logarithmic growth phase. The cells were then digested with trypsin containing 0.25% EDTA, centrifuged at 1000 rpm, and the supernatant was discarded. Cell culture medium was added, and the cell suspension was adjusted to 2×10^4/mL after counting. 135 μL of the cell suspension per well was taken and cultured in a 96-well cell culture plate for 16 hours (culture conditions: 37° C., 5.0% CO2 in air).
2. The test compounds, stored at a concentration of 10 mM, were diluted 2.5 times with DMSO and then serially diluted in a 1:3 gradient (9 gradients). The gradient-diluted samples were further diluted 40 times with serum-free medium, and 15 μL of each was added to the 96-well cell culture plate. The positive control group received serum-free medium containing the same concentration of DMSO, and the negative control group received medium without cells. The cells were then cultured for an additional 7 days.
3. After the culture period, the cell culture plate was placed at room temperature for 30 minutes. Then, 100 μL of CellCounting-Lite 2.0 reagent (Vazyme, #DD1101) was added to each well, mixed thoroughly, and incubated in the dark at room temperature for 10 minutes. The luminescence signal was read using a Synergy HTX multi-mode reader.
4. Data analysis was performed using GraphPad Prism 8.0 software. The inhibition rate (%) was calculated as 100*(average luminescence signal of the positive control group−luminescence signal of the compound)/(average luminescence signal of the positive control group−average luminescence signal of the negative control group). The IC50 value was obtained by plotting the logarithm of the compound concentration against the percentage inhibition rate.

Series [6] can be described thus: Liver microsome metabolism assay. The following applies: CD1, mouse, liver microsomes. Background: Liver microsomes are vesicles of endoplasmic reticulum, rich in cytochrome P450 enzymes.
Experimental: (§4) Experimental Materials: Mixed CD1 mouse liver microsomal enzyme protein was purchased from Xenotech (#M1000), and NADPH was purchased from Abmole (#M9076).
(§5) 1. To the liver microsomal enzyme reaction system, 210 μL of phosphate buffer was added, followed by 12.5 μL of liver microsomal enzyme at a concentration of 20 mg/mL. Then, 25 μL of NADPH at a concentration of 10 mM was added to the system, mixed well, and incubated in a 37° C. water bath with shaking for 10 minutes.
(§6) 2. The test compound, stored at a concentration of 10 mM, was diluted to 100 μM with DMSO. Then, 2.5 μL of the diluted test compound was added to the reaction system, mixed well, and incubated in a 37° C. water bath with shaking.
(§7) 3. At 0.5, 5, 10, 20, 30, and 60 minutes, 25 μL of the enzyme reaction mixture was taken and added to 125 μL of cold acetonitrile containing dexamethasone as an internal standard. The mixture was centrifuged at 4000 g for 20 minutes, and the supernatant was mixed with an equal volume of distilled water. The mixed sample was then subjected to quantitative analysis by liquid chromatography-mass spectrometry.
(§8) 4. Calculation of in vitro drug metabolism half-life and drug clearance rate:
(§9) t1/2=−0.693/k. (k: the slope of the linear regression of the natural logarithm of the percentage of drug remaining versus incubation time).
Series [7] concerns the target T1, PARP1. In words: PARP enzyme activity assay (PARP1 chemiluminescent assay kit). The following applies: enzyme inhibitory activity, read-out: PARP-1 IC50. It is filed as biochemical. The essentials: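 Chemiluminescent kit measuring PARP1 poly(ADP-ribosylation) of plate-coated histones in presence of activated DNA; compounds in 1:3 serial dilution, top 10 μM before 10-fold buffer dilution. Enzyme (2.5 ng/μL added) reacted 60 min at room temperature, detected by streptavidin-HRP luminescence; IC50 from log-concentration vs % inhibition.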

Another series can be described thus: in vitro. The settings on record: CD1, mouse, microsomes.
The nature of the next series: in vivo. The settings on record: male, ICR (CD1), mouse, po, 10 mg/kg.
In series [8] the test system is human breast cancer (MDA-MB-436) cell line. In words: Mouse CDX tumor model (MDA-MB-436 subcutaneous xenograft). Type of series: in vivo. As to the method:
Test Objective: The efficacy of the compounds was evaluated in a subcutaneous xenograft model of human breast cancer (MDA-MB-436) cell line in mice.
(§2) Test Compounds: Olaparib, Compound 1
Experimental Animals: Female NOD SCID mice, 4-5 weeks old, purchased from Nanjing Jicui.
(§3) Housing and Management: The experimental animals were housed in SPF-grade, temperature- and humidity-controlled clean rooms, using individually ventilated cages (IVC) with no more than 5 mice per cage. Temperature/humidity was controlled within the range of (23±3)° C./40-70%. Feed and water: SPF-grade mouse feed, sterilized by cobalt-60 irradiation. Drinking water was ultrafiltered and autoclaved. Animals had free access to sterile food and water. Animal identification: ear tags.
Tumor Cell Line and Tumor Model: MDA-MB-436 cells (Nanjing Cobioer Biotechnology Co., Ltd., Cat. No: CBP60385) were cultured in vitro in DMEM complete medium containing 10% fetal bovine serum, 1% penicillin-streptomycin, 1% insulin, and 16 μg/mL glutathione (37° C., 5% CO2). When the cells met the requirements for the in vivo efficacy experiment, they were collected, counted, and prepared into a PBS cell suspension. Each mouse (5-6 weeks old NOD SCID) was inoculated subcutaneously on the right flank with 0.9×10^7 cells. Tumor volume was measured and calculated three times a week after inoculation. When the tumor volume reached approximately 200-300 mm^3, the mice were grouped for administration.
Experimental Groups: The experiment was divided into the following groups: vehicle control group; Olaparib 100 mg/kg group; Compound 1 0.1 mg/kg group; Compound 1 0.3 mg/kg group; and Compound 1 1.0 mg/kg group. All groups were administered orally by gavage once daily. […] After 28 days of administration, the tumor volume was used to calculate the tumor growth inhibition rate (TGI %), and the tumor inhibition effect was statistically analyzed using software such as Excel, etc.

The test system of series [9] is peripheral blood reticulocytes. As to the kind of experiment: Effect of compound on rat reticulocytes. Type of series: in vivo. The following applies: 4 days. As to the method: Test Objective: The effect of the compound on peripheral blood reticulocytes was evaluated to determine its impact on bone marrow hematopoietic function.
as §2
as §3, with “Experimental Animals: Male Sprague Dawley rats were purchased from Beijing Charles River Laboratory Animal Technology Co., Ltd. Housing” for “Housing”, “rats” for “mice”, “rat” for “mouse”
Experimental Method: The experiment was divided into the following 5 groups: vehicle control group; Olaparib 100 mg/kg; Compound 1 0.1 mg/kg; Compound 1 0.3 mg/kg; and Compound 1 1.0 mg/kg. All treatments were administered orally by gavage once daily for 4 days. Blood samples were collected before and after treatment to measure peripheral blood reticulocyte counts.

Read-outs that look alike come from different tables or passages of the source.

This is an account of results in patent US20250051324A1, “PARP INHIBITOR, PHARMACEUTICAL COMPOSITION COMPRISING SAME, AND USE THEREOF” (KEYTHERA (SUZHOU) BIO-PHARMACEUTICALS CO., LIMITED, priority 2021, published 2025).

T1 sequence (P09874 whole entry): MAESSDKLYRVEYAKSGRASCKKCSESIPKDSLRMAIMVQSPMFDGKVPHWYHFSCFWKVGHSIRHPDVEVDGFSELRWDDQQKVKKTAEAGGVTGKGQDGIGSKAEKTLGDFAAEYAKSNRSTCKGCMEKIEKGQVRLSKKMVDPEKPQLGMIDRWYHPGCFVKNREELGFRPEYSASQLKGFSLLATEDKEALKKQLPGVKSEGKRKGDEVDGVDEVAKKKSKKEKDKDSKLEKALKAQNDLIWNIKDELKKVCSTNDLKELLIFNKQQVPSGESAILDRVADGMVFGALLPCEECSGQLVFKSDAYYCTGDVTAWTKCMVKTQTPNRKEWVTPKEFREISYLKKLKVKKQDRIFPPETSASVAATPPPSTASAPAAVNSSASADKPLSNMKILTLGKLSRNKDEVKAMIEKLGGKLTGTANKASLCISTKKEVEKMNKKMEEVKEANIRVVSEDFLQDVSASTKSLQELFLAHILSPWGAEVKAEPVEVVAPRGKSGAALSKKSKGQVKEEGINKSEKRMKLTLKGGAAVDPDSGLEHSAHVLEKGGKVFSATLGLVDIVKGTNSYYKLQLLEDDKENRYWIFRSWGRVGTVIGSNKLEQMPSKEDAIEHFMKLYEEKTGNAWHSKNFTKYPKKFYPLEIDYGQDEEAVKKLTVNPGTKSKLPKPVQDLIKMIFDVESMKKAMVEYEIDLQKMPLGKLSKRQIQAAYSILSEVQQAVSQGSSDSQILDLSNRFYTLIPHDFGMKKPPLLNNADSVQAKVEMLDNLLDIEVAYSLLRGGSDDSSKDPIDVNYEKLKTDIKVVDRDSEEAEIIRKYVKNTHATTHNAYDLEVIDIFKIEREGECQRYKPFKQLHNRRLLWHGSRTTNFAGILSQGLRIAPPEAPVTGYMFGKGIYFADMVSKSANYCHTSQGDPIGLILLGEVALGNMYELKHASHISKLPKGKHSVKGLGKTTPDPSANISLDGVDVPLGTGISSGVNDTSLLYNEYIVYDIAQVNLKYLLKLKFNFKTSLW
Experimental for in vitro: as §4, §5, §6, §7, §8, §9

A word on the IC50: it is the midpoint of a concentration-inhibition curve. One may read the AUC(0-inf) as total exposure, with the tail of the curve extrapolated. Read a high AUC(0-inf) as more exposure. Usually Cmax stands for the highest concentration seen after dosing. As usually defined, the half-life is the time needed for the level to fall by half in the phase considered. Regarding `CNC(=O)c1ccc(N2CCN(Cc3cnc4c(C)c(C(F)(F)F)c(=O)[nH]c4c3)C[C@H]2C)cn1` [Compound 54, (R)—N-methyl-5-(2-methyl-4-((8-methyl-6-oxo-7-(trifluoromethyl)-5,6-dihydro-1,5-naphthyridin-3-yl)methyl)piperazin-1-yl)picolinamide], the half-maximal inhibitory concentration (IC50) was 1.31 nM at PARP1 [1]; 4.32 nM in series [3] (proliferation, 7 days); 192 nM on PARP2; 3.34 nM in series [5] (proliferation, 7 days). For the same compound, the area under the curve AUC(0-inf) in [2] was determined as 987 µg·h/mL; in series [4], 16.8 µg·h/mL. The Cmax in [2] was found to be 48200 ng/mL; in series [4], 1690 ng/mL. In addition, the figures for the half-life in series [2] and in series [4] were 17.9 h and 7.2 h, respectively.
One may read the microsomal CLint as a measure of how fast metabolising enzymes remove a compound, apart from limits set by blood flow. Read a high microsomal CLint as rapid turnover. With `CNC(=O)c1ccc(N2CCN(Cc3cc4[nH]c(=O)c(C(F)(F)F)c(C)c4cn3)CC2)cn1` [Compound 2, N-methyl-5-(4-((4-methyl-2-oxo-3-(trifluoromethyl)-1,2-dihydro-1,6-naphthyridin-7-yl)methyl)piperazin-1-yl)picolinamide], the IC50 on PARP1 [1] is 1.22 nM; in series [3], 2.32 nM; on PARP1 [7], 3.14 nM; on PARP2, 137 nM; in series [5] it was 2.76 nM. The same compound gave a microsomal CLint at 1 µM in [6] of 0.39 µL/min/mg. In series [4], this compound displayed an AUC(0-inf) of 19.3 µg·h/mL. In series [4], this compound registered a Cmax of 2000 ng/mL. This compound also showed a half-life in series [4] of 5.07 h.
`CNC(=O)c1cnc(C2=CCN(Cc3cnc4c(C)c(C(F)(F)F)c(=O)[nH]c4c3)CC2)cn1` [Compound 79, N-methyl-5-(1-((8-methyl-6-oxo-7-(trifluoromethyl)-5,6-dihydro-1,5-naphthyridin-3-yl)methyl)-1,2,3,6-tetrahydropyridin-4-yl)pyrazine-2-carboxamide]: the half-inhibitory concentration (IC50) in series [3] (proliferation, 7 days) was 18.5 nM. The compound further returned a microsomal CLint at 1 µM in the series “in vitro” of 0.69 µL/min/mg. In the series “in vivo”, the AUC(0-inf) is 2420 µg·h/mL, the Cmax was 57000 ng/mL and the half-life was 30.5 h.
`CNC(=O)c1ccc(C2=CCN(Cc3cnc4c(C)c(C(F)(F)F)c(=O)[nH]c4c3)CC2)cn1` [Compound 14, N-methyl-1′-((8-methyl-6-oxo-7-(trifluoromethyl)-5,6-dihydro-1,5-naphthyridin-3-yl)methyl)-1′,2′,3′,6′-tetrahydro-[3,4′-bipyridine]-6-carboxamide]: the IC50 at PARP1 [1] came to 1.38 nM; in [3] (proliferation, 7 days) it was 2.38 nM; on PARP1 [7], 0.83 nM; at PARP2, 176 nM; in series [5] (proliferation, 7 days) it was 4.93 nM. Moreover, the AUC(0-inf) in [2] worked out at 2720 µg·h/mL; in series [4], 19.2 µg·h/mL. In addition, the Cmax stood at 128000 ng/mL in series [2] and 1770 ng/mL in [4]. In addition, the half-life in series [2] is 27.8 h; in series [4] it was 6.35 h.
For the compound `CNC(=O)c1ccc(N2CCN(Cc3cnc4c(C)c(C(F)(F)F)c(=O)[nH]c4c3)[C@@H](C)C2)cn1` [Compound 52, (S)—N-methyl-5-(3-methyl-4-((8-methyl-6-oxo-7-(trifluoromethyl)-5,6-dihydro-1,5-naphthyridin-3-yl)methyl)piperazin-1-yl)picolinamide], the IC50 on PARP1 [1] came out at 1.6 nM; in [3] (proliferation, 7 days), 5.05 nM; at PARP2, 271 nM; in series [5] (proliferation, 7 days) it was 11.2 nM. Besides, the total exposure AUC(0-inf) in series [2] stood at 1550 µg·h/mL; in series [4] it was 18.8 µg·h/mL. Further, the Cmax came out at 50200 ng/mL in series [2] and 1450 ng/mL in [4]. For the same compound, the half-life was 25.9 h in [2] and 5.67 h in [4].
For `O=C(c1cc(Cc2n[nH]c(=O)c3ccccc23)ccc1F)N1CCN(C(=O)C2CC2)CC1` [Olaparib, reference compound], in series [8] (100 mg/kg oral once daily, 28 days), the “Tumor Growth Inhibition Rate (TGI)” value was 89%. For the same compound, the “Body weight vs vehicle control group” value in [8] (MDA-MB-436 model, all treatment groups) is “no significant difference”. For the same compound, in [9] (100 mg/kg oral once daily), the “Reticulocyte Inhibition Rate” value is given as 91.6%. Further, the “Effect on peripheral blood reticulocytes (in words)” value in series [9] (100 mg/kg, p<0.01) is “significantly reduced”.
As to `CNC(=O)c1ccc(C2=CCN(Cc3cc4[nH]c(=O)c(C(F)(F)F)c(C)c4cn3)CC2)cn1` [Compound 89, N-methyl-1′-((4-methyl-2-oxo-3-(trifluoromethyl)-1,2-dihydro-1,6-naphthyridin-7-yl)methyl)-1′,2′,3′,6′-tetrahydro-[3,4′-bipyridine]-6-carboxamide], the IC50 on PARP1 [1] came out at 1.53 nM; in series [3] (proliferation, 7 days) it was 1.06 nM. Also, the microsomal CLint at 1 µM in “in vitro” came out at 0.81 µL/min/mg.
